Results on eleven molecules are retold here after ChEMBL document CHEMBL1126344, “Substituted penta- and hexapeptides as potent inhibitors of herpes simplex virus type 2 ribonucleotide reductase” (Bioorg Med Chem Lett, 1992).

Assay [1] is described as follows: Inhibitory activity of YAGAVVNDL against Herpes Simplex Virus type 2 (HSV-2) ribonucleotide reductase determined as control. More on the design: species or system Human alphaherpesvirus 2.
Assay [2] is described as follows: The compound was tested in vitro for inhibitory activity against Herpes Simplex Virus type 2 ribonucleotide reductase. More on the design: species or system Human alphaherpesvirus 2.
The test system of a further assay is Human alphaherpesvirus 2. The experiment in a line: Relative potency to that of YAGAVVNDL against Herpes Simplex Virus type 2 ribonucleotide reductase.

Starred links: 1 amine or outer side, 2 acyl side, 3 side chain; linkers in the order of their positions; H or OH if unused. Non-standard residues stand in square brackets, D forms with d. Residues, ends and D or L forms follow the SMILES beside them. *: point of attachment. X1 = O=C([C@H](Cc1ccc(O)cc1)N(Cc1cccc(Oc2ccccc2)c1)[*:1])[*:2]; X2 = O=C([C@H](Cc1ccc(O)cc1)N(c1ccc(-c2ccccc2)cc1)[*:1])[*:2]; X3 = O=C([C@H](Cc1ccc(O)cc1)N(Cc1ccsc1)[*:1])[*:2]; NBnTyr = O=C(O)[C@H](Cc1ccc(O)cc1)NCc1ccccc1; tBuAla = CC(C)(C)C[C@H](N)C(=O)O; Cha = N[C@@H](CC1CCCCC1)C(=O)O; αMeL = CC(C)C[C@](C)(N)C(=O)O; Pyrrolidide = C1CCN(*)C1; Nva = CCC[C@H](N)C(=O)O; NMeEt = CCN(C)*

By IC50 is commonly meant the concentration needed to halve the response being measured. Lower therefore signals higher potency. Turning to `CCN(C)C(=O)C[C@H](NC(=O)[C@@H](NC(=O)[C@@H](NC(=O)[C@@H](N)Cc1ccc(O)cc1)C(C)C)C(C)C)C(=O)N[C@@H](CC(=O)O)C(=O)N[C@@H](CC(C)C)C(=O)O` (H-YVVD(NMeEt)DL-OH), the IC50 in assay [1] is 10 µM; in assay [2], 0.4 µM. Moreover, the Relative potency in the assay on Human alphaherpesvirus 2 came to 25.
The like results for `CC(C)C[C@H](NC(=O)[C@H](CC(=O)O)NC(=O)[C@H](CC(=O)N1CCCC1)NC(=O)[C@@H](NC(=O)[C@@H](NC(=O)[C@@H](N)Cc1ccc(O)cc1)C(C)C)C(C)C)C(=O)O` (H-YVVD(Pyrrolidide)DL-OH) were, in that order, 32 µM, 1 µM and 32.
For the molecule `CC(C)[C@H](NC(=O)[C@@H](NC(=O)[C@@H](N)Cc1ccc(O)cc1)C(C)C)C(=O)N[C@@H](CC(N)=O)C(=O)N[C@@H](CC(=O)O)C(=O)N[C@@H](CC1CCCCC1)C(=O)O` (H-YVVND[Cha]-OH), the 50% inhibitory concentration (IC50) in assay [1] was determined as 16 µM; in assay [2] it was 55 µM. The molecule also gave a Relative potency with Human alphaherpesvirus 2 of 0.29.
On the same counts, the results for `CCC[C@H](NC(=O)[C@H](CC(=O)O)NC(=O)[C@H](CC(N)=O)NC(=O)[C@@H](NC(=O)[C@@H](NC(=O)[C@@H](N)Cc1ccc(O)cc1)C(C)C)C(C)C)C(=O)O` (H-YVVND[Nva]-OH) are 25 µM, 160 µM and 0.16.
Consider `CC(C)[C@H](NC(=O)[C@@H](NC(=O)[C@@H](N)Cc1ccc(O)cc1)C(C)C)C(=O)N[C@@H](CC(N)=O)C(=O)N[C@@H](CC(=O)O)C(=O)N[C@@H](CC(C)(C)C)C(=O)O` (H-YVVND[tBuAla]-OH), for which the IC50 in assay [1] was determined as 43 µM; in assay [2], 13 µM. Besides, the Relative potency in the assay on Human alphaherpesvirus 2 came out at 3.3.
On the same counts, the results for `CC(C)C[C@](C)(NC(=O)[C@H](CC(=O)O)NC(=O)[C@H](CC(N)=O)NC(=O)[C@@H](NC(=O)[C@@H](NC(=O)[C@@H](N)Cc1ccc(O)cc1)C(C)C)C(C)C)C(=O)O` (H-YVVND[αMeL]-OH) are 38 µM, 320 µM and 0.12.
The like results for `CC(C)[C@H](NC(=O)[C@H](Cc1ccc(O)cc1)NCc1ccccc1)C(=O)N[C@H](C(=O)N[C@@H](CC(=O)N(C)C)C(=O)N[C@@H](CC(=O)O)C(=O)N[C@@H](CC(C)(C)C)C(=O)O)C(C)C` (H-[NBnTyr]VVD(NMe2)D[tBuAla]-OH) were, in that order, 18 µM, 0.3 µM and 60.
The like results for `CC(C)[C@H](NC(=O)[C@H](Cc1ccc(O)cc1)NCc1ccccc1)C(=O)N[C@H](C(=O)N[C@@H](CC(N)=O)C(=O)N[C@@H](CC(=O)O)C(=O)N[C@@H](CC(C)(C)C)C(=O)O)C(C)C` (H-[NBnTyr]VVND[tBuAla]-OH) were, in that order, 35 µM, 1.5 µM and 23.
Take `CC(C)C[C@H](NC(=O)[C@H](CC(=O)O)NC(=O)[C@H](CC(N)=O)NC(=O)[C@@H](NC(=O)[C@@H](NC(=O)[C@H](Cc1ccc(O)cc1)NCc1cccc(Oc2ccccc2)c1)C(C)C)C(C)C)C(=O)O` (H-[X1]VVNDL-OH): the IC50 in assay [1] came to 40 µM; in assay [2] it was 12 µM. In addition, in the assay with Human alphaherpesvirus 2, the Relative potency amounted to 3.3.
On the same counts, the results for `CC(C)C[C@H](NC(=O)[C@H](CC(=O)O)NC(=O)[C@H](CC(N)=O)NC(=O)[C@@H](NC(=O)[C@@H](NC(=O)[C@H](Cc1ccc(O)cc1)Nc1ccc(-c2ccccc2)cc1)C(C)C)C(C)C)C(=O)O` (H-[X2]VVNDL-OH) are 34 µM, 32 µM and 1.1.
On the same counts, the results for `CC(C)C[C@H](NC(=O)[C@H](CC(=O)O)NC(=O)[C@H](CC(N)=O)NC(=O)[C@@H](NC(=O)[C@@H](NC(=O)[C@H](Cc1ccc(O)cc1)NCc1ccsc1)C(C)C)C(C)C)C(=O)O` (H-[X3]VVNDL-OH) are 80 µM, 20 µM and 4.
